Measurements: BindingDB's records for doi:10.1016/j.bmcl.2003.08.015 (The University of Birmingham, 2003)

Biological target: T1, 3-oxoacyl-[acyl-carrier-protein] synthase 3 (Mycobacterium tuberculosis (strain ATCC 25618 / H37Rv), UniProt P9WNG3)
T1 sequence (P9WNG3 whole entry): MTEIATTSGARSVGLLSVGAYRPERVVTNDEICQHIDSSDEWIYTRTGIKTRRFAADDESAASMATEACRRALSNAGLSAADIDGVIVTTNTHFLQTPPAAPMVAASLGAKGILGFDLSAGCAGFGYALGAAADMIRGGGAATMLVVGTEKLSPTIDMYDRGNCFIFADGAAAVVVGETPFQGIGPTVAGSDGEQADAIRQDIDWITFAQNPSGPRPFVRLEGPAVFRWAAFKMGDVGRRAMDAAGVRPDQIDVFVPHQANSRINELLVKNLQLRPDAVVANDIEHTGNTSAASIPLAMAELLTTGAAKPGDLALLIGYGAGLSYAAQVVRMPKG
Experiment: ChEBML_37595
Description: In vitro inhibitory activity against the recombinant Mycobacterium tuberculosis Beta-ketoacyl-ACP synthase III mtFabH condensing enzyme.

Compound: CC1C(=O)SC(C)(Cc2cccc(Oc3ccccc3)c2)C1=O (configuration not stated) [4-Hydroxy-3,5-dimethyl-5-(3-phenoxy-benzyl)-5H-thiophen-2-one]
- IC50: 52 µM

Compound: Cc1ccc(-c2ccc(CC3(C)SC(=O)C(C)C3=O)cc2)cc1 (configuration not stated) [4-Hydroxy-3,5-dimethyl-5-(4'-methyl-biphenyl-4-ylmethyl)-5H-thiophen-2-one]
- IC50: 52 µM
